Here are results for 19 compounds from patent US6451814B1, “Heterocyclic β-3 adrenergic receptor agonists” (Wyeth, priority 2000, dated 2002).

The assay has as its target T1, human β3-adrenergic receptor (Homo sapiens, UniProt P13945).
T1 construct: Full length β3 AR clones (402 amino acids) containing the last 6 amino acids of hβ3—AR are prepared; expressed in transfected cells; host or cells: CHO cells
Description: cAMP response (SPA kit) in CHO cells transfected with human β3 adrenergic receptor. The assay is classed as cell-based. The following applies: for EC50: CHO cells expressing human β3-AR, 10^-9 M to 10^-5 M, 30 min at 37° C., cAMP by SPA, read-out: EC50(β3); for IA(β3): maximal response of compound compared to maximal response of isoproterenol at 10^-5 M, CHO cells, human β3-AR.

Structures are written as SMILES. Values joined by “and” are separate entries in the source; they are usually repeats but may differ in a detail not shown here. Equal values may be shown once.

T1 sequence (P13945 whole entry): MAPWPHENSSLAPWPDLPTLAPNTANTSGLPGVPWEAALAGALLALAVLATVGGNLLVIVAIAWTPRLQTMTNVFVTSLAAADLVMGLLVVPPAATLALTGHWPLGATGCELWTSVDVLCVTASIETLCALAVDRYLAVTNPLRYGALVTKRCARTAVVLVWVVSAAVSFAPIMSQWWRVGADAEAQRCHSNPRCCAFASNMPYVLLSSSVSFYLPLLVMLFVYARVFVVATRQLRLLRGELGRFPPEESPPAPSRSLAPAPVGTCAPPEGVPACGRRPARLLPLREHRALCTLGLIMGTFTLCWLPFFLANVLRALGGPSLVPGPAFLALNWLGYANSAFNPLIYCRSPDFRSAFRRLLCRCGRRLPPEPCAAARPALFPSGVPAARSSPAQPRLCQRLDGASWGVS

A word on the EC50: it is the concentration giving half of the maximal effect. Regarding `CCCCCCCCNC(=O)N1CCC(Nc2ccc(CCNC[C@H](O)COc3ccc(O)c(NS(C)(=O)=O)c3)cc2)CC1` [Example 66, 4-(4-{2-[(2S)-2-Hydroxy-3-(4-hydroxy-3-methanesulfonylamino-phenoxy)-propylamino]-ethyl}-phenylamino)-piperidine-1-carboxylic Acidoctylamide], the EC50 came to 200 nM and the “IA(β3)” value was determined as 0.99.

Regarding `O=C(O)COc1ccc(NC(=O)N2CCC(Nc3ccc(CCNC[C@H](O)COc4ccc(O)cc4)cc3)CC2)cc1` [Example 58, (4-{[4-(4-{2-[(2S)-2-Hydroxy-3-(4-hydroxy-phenoxy)-propylamino]-ethyl}-phenylamino)-piperidine-1-carbonyl]-amino}-phenoxy)-acetic Acid], the EC50 came out at 320 nM and the “IA(β3)” value came to 1.61.

Turning to `O=C(NCCCC1CCCC1)N1CCC(Nc2ccc(CCNC[C@H](O)COc3ccc(O)cc3)cc2)CC1` [Example 12, 1-4-(4-{2-[(2S)-2-Hydroxy-3-(4-hydroxy-phenoxy)-propylamino]-ethyl}-phenylamino)-piperidine-1-carboxylic Acid (3-cyclopentyl-propyl)-amide], the half-maximal effective concentration (EC50) turned out to be 50 nM.

Take `O=C(NCc1ccc(F)cc1)N1CCC(Oc2ccc(CCNC[C@H](O)COc3ccc(O)cc3)cc2)CC1` [Example 56, 4-(4-{2-[(2S)2-Hydroxy-3-(4-hydroxy-phenoxy)-propylamino]-ethyl}-phenoxy)-piperidine-1-carboxylic Acid 4-fluoro-benzylamide]: the concentration for a half-maximal effect (EC50) amounted to 52 nM and the “IA(β3)” value is recorded as 0.84.

Turning to `CCCCCCCCNC(=O)N1CCC(Nc2ccc(OCCNC[C@H](O)COc3ccc(O)cc3)cc2)CC1` [Example 73, 4-(4-{2-[(2S)-2-Hydroxy-3-(4-hydroxy-phenoxy)-propylamino]-ethoxy}-phenylamino)-piperidine-1-carboxylic Acid Octylamide], the EC50 is 70 nM and the “IA(β3)” value is recorded as 0.8.

For `CCCCCCCCNC(=O)N1CCC(Oc2ccc(CCNC[C@H](O)COc3ccc(O)cc3)cc2)CC1` [Example 54, 4-[4-(2-{[(2S)-2-Hydroxy-3-(4-hydroxyphenoxy)propyl]amino}ethyl)phenoxy]-N-octyl-1-piperidinecarboxamide], the half-maximal effective concentration (EC50) is 1010 nM and 398 nM and 400 nM; the “IA(β3)” value was 0.7 and 0.78 and 0.51.

With `CS(=O)(=O)Nc1cc([C@@H](O)CNCCc2ccc(NC3CCN(C(=O)c4ccc(C(=O)O)cc4)CC3)cc2)ccc1O` [Example 105, 4-[4-(4-{2-[(2R)-2-Hydroxy-2-(4-hydroxy-3-methanesulfonylamino-phenyl)-ethylamino]-ethyl}-phenylamino)-piperidine-1-carbonyl]-benzoic Acid], the EC50 was found to be 37 nM and the “IA(β3)” value is 1.

As for `CCCCCCNC(=O)N1CCC(S(=O)(=O)c2ccc(CCNC[C@H](O)COc3ccc(O)cc3)cc2)CC1` [Example 44, 4-(4-{2-[(2S)-2-Hydroxy-3-(4-hydroxy-phenoxy)-propylamino]-ethyl}-benzenesulfonyl)-piperidine-1-carboxylic Acid Hexylamide], the EC50 worked out at 36 nM and the “IA(β3)” value was determined as 0.99.

As to `Oc1ccc(OC[C@@H](O)CNCCc2ccc(NC3CCN(c4nc(-c5ccccc5)cs4)CC3)cc2)cc1` [Example 117, 4-[(2S)-2-Hydroxy-3-(2-{4-[1l-(4-phenyl-thiazol-2-yl)-piperidin-4-ylamino]-phenyl}-ethylamino)-propoxy]-phenol], the half-maximal effective concentration (EC50) worked out at 208 nM and the “IA(β3)” value turned out to be 1.1.

On to `CC(C)NC(=O)N1CCC(Nc2ccc(CCNC[C@H](O)COc3ccc(O)cc3)cc2)CC1` [Example 11], for which the EC50 was 90 nM and the “IA(β3)” value came to 1.05.

Turning to `CS(=O)(=O)Nc1cc([C@@H](O)CNCCc2ccc(NC3CCN(c4nc(-c5ccccc5)cs4)CC3)cc2)ccc1O` [Example 118, (R)-N-{2-Hydroxy-5-[1-hydroxy-2-(2-{4-[1-(4-phenyl-thiazol-2-yl)-piperidin-4-ylamino]-phenyl}-ethylamino)-ethyl]-phenyl}-methanesulfonamide], the EC50 was 22 nM and the “IA(β3)” value was 0.96.

With `O=C(O)COc1ccc(CNC(=O)N2CCC(Nc3ccc(CCNC[C@H](O)COc4ccc(O)cc4)cc3)CC2)c(F)c1` [Example 86, [3-Fluoro-4-[[[[4-[[4-[2-[[(S)-2-hydroxy-3-(4-hydroxyphenoxy)propyl]amino]ethyl]phenyl]amino]-1-piperidinyl]carbonyl]amino]methyl]phenoxy]acetic Acid], the EC50 is 127 nM and the “IA(β3)” value came to 1.1.

For `O=C(NCc1ccc(O)cc1F)N1CCC(Nc2ccc(CCNC[C@H](O)COc3cccc(O)c3)cc2)CC1` [Example 87, 4-(4-{2-[(2S)-2-Hydroxy-3-(3-hydroxy-phenoxy)-propylamino]-ethyl}-phenylamino)-piperidine-1-carboxylic Acid 2-fluoro-4-hydroxy-benzylamide], the EC50 came to 4 nM and the “IA(β3)” value turned out to be 0.84.

As for `O=C(NCc1ccc(Cl)cc1Cl)N1CCC(Nc2ccc(CCNC[C@H](O)COc3ccc(O)cc3)cc2)CC1` [Example 20, 4-(4-{2-[(2S)-2-Hydroxy-3-(4-hydroxy-phenoxy)-propylamino]-ethyl}-phenylamino)-piperidine-1-carboxylic Acid 2,4-dichloro-benzylamide], the “IA(β3)” value came to 0.91.

On to `Cc1sccc1C(=O)N1CCC(S(=O)(=O)c2ccc(CCNC[C@H](O)COc3ccc(O)cc3)cc2)CC1` [Example 107, [4-(4-{2-[(2S)-2-Hydroxy-3-(4-hydroxy-phenoxy)-propylamino]-ethyl}benenesulfonyl)-piperidin-1-yl]-(2-methyl-thiophen-3-yl)-methanone], for which the EC50 stood at 40 nM and the “IA(β3)” value amounted to 0.92.

For `Cc1ccc(S(=O)(=O)N2CCC(Nc3ccc(CCNC[C@H](O)COc4ccc(O)cc4)cc3)CC2)cc1` [Example 112, 4-[(2S)-2-Hydroxy-3-(2-{4-[1-(toluene-4-sulfonyl)-piperidin-4-ylamino]-phenyl}-ethylamino)-propoxy]-phenol], the EC50 is 86 nM and the “IA(β3)” value came to 0.89.

Turning to `O=C(c1n[nH]c2ccccc12)N1CCC(Nc2ccc(CCNC[C@H](O)COc3ccc(O)cc3)cc2)CC1` [Example 102, [4-(4-{2-[(2S)-2-Hydroxy-3-(4-hydroxy-phenoxy)-propylamino]-ethyl}-phenylamino)-piperidin-1-yl]-(1H-indazol-3-yl)-methanone], the EC50 turned out to be 9 nM and the “IA(β3)” value is reported as 0.95.

On to `O=C(NCc1ccc(Cl)c(Cl)c1)N1CCC(Nc2ccc(CCNC[C@H](O)COc3ccc(O)cc3)cc2)CC1` [Example 21, 4-(4-{2-[(2S)-2-Hydroxy-3-(4-hydroxy-phenoxy)-propylamino]-ethyl}-phenylamino)-piperidine-1-carboxylic Acid 3,4-dichloro-benzylamide], for which the EC50 is 30 nM and the “IA(β3)” value is given as 1.

`O=C(CCNC(=O)N1CCC(Nc2ccc(CCNC[C@H](O)COc3ccc(O)cc3)cc2)CC1)N1CCOCC1` [Example 90, 4-(4-{2-[(2S)-2-Hydroxy-3-(4-hydroxy-phenoxy)-propylamino]-ethyl}-phenylamino)-piperidine-1-carboxylic Acid (3-morpholin-4-yl-3-oxo-propyl)-amide]: the EC50 stood at 77 nM and the “IA(β3)” value was found to be 0.73.
